Our source for the MIC values is ChEMBL document CHEMBL6153105, “MDN-0057 to MDN-0060, a Family of Broad-Spectrum Antibiotics against Gram-Negative Pathogens Produced by Ophiosphaerella korrae” (2025).

Common to all, as to type: functional
One experiment deals with Pseudomonas aeruginosa. Put plainly: Antibacterial activity against Pseudomonas aeruginosa ATCC 27853 incubated for 20 hrs.
A further experiment has as its system Acinetobacter baumannii. Briefly: Antibacterial activity against Acinetobacter baumannii MB5973 incubated for 20 hrs.
The test system of another experiment is Escherichia coli. Put plainly: Antibacterial activity against Escherichia coli ATCC 25922 incubated for 20 hrs.

Converted amounts (≈) assume the structure as drawn.

For `[C-]#[N+]C(=C)[C@](Cc1ccc(OC)cc1)([N+]#[C-])[C@H]1C[C@@H](O)CC[C@@H]1OC(C)=O`, the MIC amounted to 16 µg/mL (≈ 43.4 µM) against Pseudomonas aeruginosa and 0.5 µg/mL (≈ 1.36 µM) in the experiment on Acinetobacter baumannii.
As to `[C-]#[N+]C(=C)[C@](Cc1ccc(OC)cc1)([N+]#[C-])[C@H]1C[C@@H](O)CC[C@@H]1OC(=O)CO`, the minimal inhibitory concentration (MIC) came to 2 µg/mL (≈ 5.2 µM) against Pseudomonas aeruginosa, 16 µg/mL (≈ 41.6 µM) against Escherichia coli and 0.25 µg/mL (≈ 0.65 µM) against Acinetobacter baumannii.
In the case of `[C-]#[N+]C(=C)[C@](Cc1ccc(OC)cc1)([N+]#[C-])[C@H]1C[C@@H](O)C=C[C@@H]1OC(=O)CO`, the results for the MIC in the experiment with Pseudomonas aeruginosa, in the experiment with Escherichia coli and with Acinetobacter baumannii were 64 µg/mL (≈ 167 µM), 16 µg/mL (≈ 41.8 µM) and 0.25 µg/mL (≈ 0.654 µM), respectively.
On to `[C-]#[N+]C(=C)[C@](Cc1ccc(OC)cc1)([N+]#[C-])[C@H]1C[C@@H](O)C=C[C@@H]1OC(C)=O`, for which the MIC with Pseudomonas aeruginosa is 32 µg/mL (≈ 87.3 µM); with Acinetobacter baumannii it was 1 µg/mL (≈ 2.73 µM).
In turn, `C[C@H]1[C@H](NC(=O)/C(=N\OC(C)(C)C(=O)O)c2csc(N)n2)C(=O)N1S(=O)(=O)O` [AZTREONAM] came in with an MIC with Escherichia coli of 0.25 µg/mL (≈ 0.574 µM).
On to `CO[C@H]1/C=C/O[C@@]2(C)Oc3c(C)c(O)c4c(O)c(c(/C=N/N5CCN(C)CC5)c(O)c4c3C2=O)NC(=O)/C(C)=C\C=C\[C@H](C)[C@H](O)[C@@H](C)[C@@H](O)[C@@H](C)[C@H](OC(C)=O)[C@@H]1C` [RIFAMPIN], for which, in the experiment on Acinetobacter baumannii, 2.5 µg/mL (≈ 3.04 µM) was the least that counted as inhibitory (MIC).
